This assay has as its target E3 ubiquitin-protein ligase CBL-B (Homo sapiens, UniProt Q13191). Briefly: Inhibition of Cbl-b (unknown origin) assessed as inhibition of Cbl-b dependent auto-ubiquitination in presence of ATP measured after 13 hrs by fluorescence microplate reader assay.

What is called IC50 is the point on the concentration scale where inhibition reaches its midpoint.

Chain of E3 ubiquitin-protein ligase CBL-B (Q13191 whole entry): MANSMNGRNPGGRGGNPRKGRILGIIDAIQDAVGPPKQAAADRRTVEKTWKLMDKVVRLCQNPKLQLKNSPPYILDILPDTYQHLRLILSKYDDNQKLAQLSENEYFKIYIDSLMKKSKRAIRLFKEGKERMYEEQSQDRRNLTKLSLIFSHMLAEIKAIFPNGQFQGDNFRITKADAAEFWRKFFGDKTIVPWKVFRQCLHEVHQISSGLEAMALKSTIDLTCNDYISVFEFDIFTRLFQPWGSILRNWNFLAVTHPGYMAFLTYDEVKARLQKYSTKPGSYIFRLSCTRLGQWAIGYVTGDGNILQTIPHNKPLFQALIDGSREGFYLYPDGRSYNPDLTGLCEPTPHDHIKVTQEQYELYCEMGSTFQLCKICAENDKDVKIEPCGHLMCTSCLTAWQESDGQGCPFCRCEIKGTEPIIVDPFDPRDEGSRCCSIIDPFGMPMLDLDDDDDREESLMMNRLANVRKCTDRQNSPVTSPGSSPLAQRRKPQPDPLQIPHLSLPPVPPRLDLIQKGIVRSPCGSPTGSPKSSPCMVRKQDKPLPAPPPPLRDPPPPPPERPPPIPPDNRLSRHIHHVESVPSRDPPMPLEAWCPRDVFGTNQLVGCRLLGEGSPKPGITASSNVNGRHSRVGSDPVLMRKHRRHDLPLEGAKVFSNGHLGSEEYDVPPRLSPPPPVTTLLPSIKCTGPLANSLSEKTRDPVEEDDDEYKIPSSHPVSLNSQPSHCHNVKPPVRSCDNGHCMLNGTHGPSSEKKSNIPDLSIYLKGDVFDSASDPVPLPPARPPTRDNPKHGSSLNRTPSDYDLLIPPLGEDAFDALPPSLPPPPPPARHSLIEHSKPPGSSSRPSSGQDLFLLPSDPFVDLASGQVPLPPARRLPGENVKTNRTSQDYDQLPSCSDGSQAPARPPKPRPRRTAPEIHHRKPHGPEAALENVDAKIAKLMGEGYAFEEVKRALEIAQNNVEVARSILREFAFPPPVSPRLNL

Regarding `CC(C)=CCC/C(C)=C/CC/C(C)=C/CC/C(C)=C/C(=O)NCCC[N+](C)(C)CCCC[N+](C)(C)CCCNC(=O)/C=C(\C)CC/C=C(\C)CC/C=C(\C)CCC=C(C)C`, the 50% inhibitory concentration (IC50) turned out to be 6.5 µM.
